Experimental data from US8288371B2, “Ortho pyrrolidine, benzyl-substituted heterocycle CCR1 antagonists for autoimmune diseases and inflammation” (Pharmacopeia, LLC, priority 2007, dated 2012).

Target: T1, human CCR1 (Homo sapiens, UniProt P32246)
T1 sequence (P32246 1-355): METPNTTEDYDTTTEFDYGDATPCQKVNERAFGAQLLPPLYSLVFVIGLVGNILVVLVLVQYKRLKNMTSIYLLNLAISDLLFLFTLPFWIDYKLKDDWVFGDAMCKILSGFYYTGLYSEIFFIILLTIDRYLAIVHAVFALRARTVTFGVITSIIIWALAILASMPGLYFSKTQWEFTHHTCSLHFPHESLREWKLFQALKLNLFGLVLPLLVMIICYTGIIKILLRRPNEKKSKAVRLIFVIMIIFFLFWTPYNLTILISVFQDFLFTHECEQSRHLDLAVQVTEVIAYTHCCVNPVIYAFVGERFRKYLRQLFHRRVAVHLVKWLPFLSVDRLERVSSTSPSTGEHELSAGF
Assay: CCR1 binding protocol (SPA, [125I]-MIP-1α displacement)
Details: cell membrane expressing human CCR1, 0.1 nM [125I]-MIP-1α, 4 hours at ambient temperature; read-out: Relative potency (IC50)
Protocol: The following protocol was used to test compounds for CCR1 binding. A mixture, including scintillation proximity assay (SPA) beads and cell membrane expressing human CCR1, was prepared in assay buffer (130 mM NaCl+5 mM KCl+1 mM MnCl+50 mM Tris HCl at pH 7.4+0.1% bovine serum albumin (BSA)) at the ratio of 50 μg/ml membrane to 10 mg/ml SPA beads. 10 μl of the mixture was transferred to each well of a 384-well assay plate yielding a final concentration for the membrane and SPA beads of 0.5 μg/well and 100 μg/well, respectively
To generate different concentrations of the test compound, compound stocks were prepared using 10 step ½ log dilutions with a high concentration of 10 mM in DMSO and the lowest concentration being DMSO only without compound. An intermediate 40× dilution was then prepared in the assay buffer. The compound was then transferred at 10 μl/well to the assay plate. 0.5 nM [^125 I]-labeled macrophage inflammatory protein-1α (MIP-1α, an endogenous CCR1 ligand) in the assay buffer was transferred to the assay plate at 5 μl/well, for a final ligand concentration of 0.1 nM. The assay plate was then centrifuged at 2500 rpm for 2 minutes and incubated for 4 hours at ambient temperature, at which time the raw data was recorded using microbeta. The IC50 was then calculated using Graphpad Prism.

| IC50 [nM] | Structure (SMILES) |
| --- | --- |
| < 50 | Cc1noc([C@H]2CCCN2C(=O)Nc2c(C)noc2C)c1Cc1ccc(Cl)cc1 [Compound 1] |
| 50 to 500 | Cc1noc(-c2ccccc2)c1NC(=O)N1CCC[C@@H]1c1oncc1Cc1ccc(Cl)cc1 [Compound 2] |
| 50 to 500 | CN1C(=O)COc2ccc(NC(=O)N3CCC[C@@H]3c3oncc3Cc3ccc(Cl)cc3)cc21 [Compound 3] |
| 50 to 500 | O=C(N[C@H]1CCOc2cc(C(F)(F)F)ccc21)N1CCC[C@@H]1c1oncc1Cc1ccc(Cl)cc1 [Compound 4] |
| 50 to 500 | O=C(Nc1ccc(C(F)(F)F)cc1)N1CCC[C@@H]1c1oncc1Cc1ccc(Cl)cc1 [Compound 5] |
| 500 to 5000 | Cc1noc([C@H]2CCCN2C(=O)Nc2ccc(C(F)(F)F)cc2)c1Cc1ccc(Cl)cc1 [Compound 6] |
| 50 to 500 | Cc1noc(C)c1NC(=O)N1CCC[C@@H]1c1noc(C)c1Cc1ccc(Cl)cc1 [Compound 7] |
| 50 to 500 | Cn1cc(Cc2ccc(Cl)cc2)c([C@H]2CCCN2C(=O)Nc2ccc(C(F)(F)F)cc2)n1 [Compound 8] |
| 500 to 5000 | Cc1noc(-c2ccccc2)c1NC(=O)N1CCC[C@@H]1c1nn(C)c(C)c1Cc1ccc(Cl)cc1 [Compound 9] |
| 500 to 5000 | O=C(Nc1ccc(C(F)(F)F)cc1)N1CCC[C@@H]1c1[nH]ncc1Cc1ccc(Cl)cc1 [Compound 10] |
| 500 to 5000 | Cn1ncc(Cc2ccc(Cl)cc2)c1[C@H]1CCCN1C(=O)Nc1ccc(C(F)(F)F)cc1 [Compound 11] |
| < 50 | Cc1cc(C(F)(F)F)cc(C)c1NC(=O)N1CCC[C@@H]1c1ncncc1Cc1ccc(Cl)cc1 [Compound 12] |
| < 50 | Cc1cc(Cl)cc(C)c1NC(=O)N1CCC[C@@H]1c1ncncc1Cc1ccc(Cl)cc1 [Compound 13] |
| < 50 | Cc1noc(-c2ccccc2)c1NC(=O)N1CCC[C@@H]1c1ncncc1Cc1ccc(Cl)cc1 [Compound 14] |
| < 50 | Cc1onc(-c2ccccc2)c1NC(=O)N1CCC[C@@H]1c1ncncc1Cc1ccc(Cl)cc1 [Compound 15] |
| 50 to 500 | Cc1ncc(Cc2ccc(Cl)cc2)c([C@H]2CCCN2C(=O)Nc2c(C)cc(C(F)(F)F)cc2C)n1 [Compound 16] |
| 50 to 500 | CN1C(=O)COc2ccc(NC(=O)N3CCC[C@@H]3c3ncncc3Cc3ccc(Cl)cc3)cc21 [Compound 17] |
| 50 to 500 | Cc1ncc(Cc2ccc(Cl)cc2)c([C@H]2CCCN2C(=O)Nc2c(C)cc(Cl)cc2C)n1 [Compound 18] |
| 50 to 500 | Cc1ncnc([C@H]2CCCN2C(=O)Nc2c(C)noc2C)c1Cc1ccc(Cl)cc1 [Compound 19] |
| 50 to 500 | C[C@H](NC(=O)N1CCC[C@@H]1c1ncncc1Cc1ccc(Cl)cc1)c1ccc(C(F)(F)F)cc1 [Compound 20] |
| 50 to 500 | Cc1ncc(Cc2ccc(Cl)cc2)c([C@H]2CCCN2C(=O)Nc2c(C)noc2-c2ccccc2)n1 [Compound 21] |
| 50 to 500 | O=C(N[C@H]1CCOc2c(F)cccc21)N1CCC[C@@H]1c1ncncc1Cc1ccc(Cl)cc1 [Compound 22] |

| IC50 [nM] | Structure (SMILES) |
| --- | --- |
| 50 to 500 | O=C(Nc1ccc(C(F)(F)F)cc1)N1CCC[C@@H]1c1ncncc1Cc1ccc(Cl)cc1 [Compound 23] |
| 50 to 500 | O=C(N[C@H]1CCOc2cc(C(F)(F)F)ccc21)N1CCC[C@@H]1c1ncncc1Cc1ccc(Cl)cc1 [Compound 24] |
| 50 to 500 | O=C(NCc1ccc(C(F)(F)F)cc1)N1CCC[C@@H]1c1ncncc1Cc1ccc(Cl)cc1 [Compound 25] |
| 50 to 500 | Cc1ncnc([C@H]2CCCN2C(=O)NC2(c3ccccc3)CC2)c1Cc1ccc(Cl)cc1 [Compound 26] |
| 500 to 5000 | Cc1ncc(Cc2ccc(Cl)cc2)c([C@H]2CCCN2C(=O)Nc2ccc3c(c2)N(C)C(=O)CO3)n1 [Compound 27] |
| 500 to 5000 | CC(C)(NC(=O)N1CCC[C@@H]1c1ncncc1Cc1ccc(Cl)cc1)c1ccccc1 [Compound 28] |
| < 50 | O=C(N[C@H]1CCCc2ccccc21)N1CCC[C@@H]1c1nccn1Cc1ccc(Cl)cc1 [Compound 29] |
| < 50 | Cc1cc(C(F)(F)F)cc(C)c1NC(=O)N1CCC[C@@H]1c1nccn1Cc1ccc(Cl)cc1 [Compound 30] |
| < 50 | Cc1oc(-c2ccccc2)cc1NC(=O)N1CCC[C@@H]1c1nccn1Cc1ccc(Cl)cc1 [Compound 31] |
| < 50 | O=C(NC1CCCOc2ccccc21)N1CCC[C@@H]1c1nccn1Cc1ccc(Cl)cc1 (stereo partly drawn) [Compound 32] |
| < 50 | Cc1cc(Cl)cc(C)c1NC(=O)N1CCC[C@@H]1c1nccn1Cc1ccc(Cl)cc1 [Compound 33] |
| < 50 | Cc1noc(-c2ccccc2)c1NC(=O)N1CCC[C@@H]1c1nccn1Cc1ccc(Cl)cc1 [Compound 34] |
| < 50 | Cc1onc(-c2ccccc2)c1NC(=O)N1CCC[C@@H]1c1nccn1Cc1ccc(Cl)cc1 [Compound 35] |
| < 50 | Cc1nc(-c2ccccc2)sc1NC(=O)N1CCC[C@@H]1c1nccn1Cc1ccc(Cl)cc1 [Compound 36] |
| < 50 | CSc1ccc(NC(=O)N2CCC[C@@H]2c2nccn2Cc2ccc(Cl)cc2)cc1 [Compound 37] |
| 50 to 500 | O=C(Nc1ccc(C(F)(F)F)cc1)N1CCC[C@@H]1c1nccn1Cc1ccc(Cl)cc1 [Compound 38] |
| 50 to 500 | O=C(Nc1ccc(OC(F)(F)F)cc1)N1CCC[C@@H]1c1nccn1Cc1ccc(Cl)cc1 [Compound 39] |
| 50 to 500 | O=C(Nc1ccc(SC(F)(F)F)cc1)N1CCC[C@@H]1c1nccn1Cc1ccc(Cl)cc1 [Compound 40] |
| 50 to 500 | O=C(Nc1ccc(Cl)c(C(F)(F)F)c1)N1CCC[C@@H]1c1nccn1Cc1ccc(Cl)cc1 [Compound 41] |
| 50 to 500 | N#C/N=C(\Nc1ccc(C(F)(F)F)cc1)N1CCC[C@@H]1c1nccn1Cc1ccc(Cl)cc1 [Compound 42] |
| 50 to 500 | O=C(NCc1ccc(Cl)cc1Cl)N1CCC[C@@H]1c1nccn1Cc1ccc(Cl)cc1 [Compound 43] |
| 50 to 500 | CC[C@H](NC(=O)N1CCC[C@@H]1c1nccn1Cc1ccc(Cl)cc1)c1ccc(C(F)(F)F)cc1 [Compound 44] |

| IC50 [nM] | Structure (SMILES) |
| --- | --- |
| 500 to 5000 | Cc1cc(NC(=O)N2CCC[C@@H]2c2nccn2Cc2ccc(Cl)cc2)c(C(F)(F)F)o1 [Compound 45] |
| 500 to 5000 | Cc1ccc(Cn2ccnc2[C@H]2CCCN2C(=O)Nc2ccc(C(F)(F)F)cc2)cc1 [Compound 46] |
| 500 to 5000 | O=C(Nc1ccc(C(F)(F)F)cc1)N1CCC[C@@H]1c1nccn1Cc1ccccc1 [Compound 47] |
| < 50 | O=C(N[C@H]1CCCc2ccccc21)N1CCC[C@@H]1c1nnnn1Cc1ccc(Cl)cc1 [Compound 48] |
| 50 to 500 | CC1(C)CC(NC(=O)N2CCC[C@@H]2c2nnnn2Cc2ccc(Cl)cc2)c2ccccc2O1 (stereo partly drawn) [Compound 49] |
| 500 to 5000 | N#C/N=C(\N[C@H]1CCCc2ccccc21)N1CCC[C@@H]1c1nnnn1Cc1ccc(Cl)cc1 [Compound 50] |
| < 50 | Cc1noc(-c2ccccc2)c1NC(=O)N1CCC[C@@H]1c1nnnn1Cc1ccc(Cl)cc1 [Compound 51] |
| < 50 | Cc1onc(-c2ccccc2)c1NC(=O)N1CCC[C@@H]1c1nnnn1Cc1ccc(Cl)cc1 [Compound 52] |
| < 50 | O=C(Nc1ccc(C(F)(F)F)cc1)N1CCC[C@@H]1c1nnnn1Cc1ccc(Cl)cc1 [Compound 53] |
| 50 to 500 | O=C(Nc1ccc(Cl)cc1F)N1CCC[C@@H]1c1nnnn1Cc1ccc(Cl)cc1 [Compound 54] |
| < 50 | O=C(N[C@H]1CCOc2cc(C(F)(F)F)ccc21)N1CCC[C@@H]1c1nnnn1Cc1ccc(Cl)cc1 [Compound 55] |
| < 50 | O=C(N[C@H]1CCc2ccccc2C1)N1CCC[C@@H]1c1ncnn1Cc1ccc(Cl)cc1 [Compound 56] |
| < 50 | O=C(N[C@H]1CCOc2cc(C(F)(F)F)ccc21)N1CCC[C@@H]1c1ncnn1Cc1ccc(Cl)cc1 [Compound 57] |
| < 50 | Cc1cc(C(F)(F)F)cc(C)c1NC(=O)N1CCC[C@@H]1c1ncnn1Cc1ccc(Cl)cc1 [Compound 58] |
| < 50 | Cc1noc(-c2ccccc2)c1NC(=O)N1CCC[C@@H]1c1ncnn1Cc1ccc(Cl)cc1 [Compound 60] |
| < 50 | Cc1cc(C(F)(F)F)cc(Br)c1NC(=O)N1CCC[C@@H]1c1ncnn1Cc1ccc(Cl)cc1 [Compound 61] |
| < 50 | Cc1onc(-c2ccccc2)c1NC(=O)N1CCC[C@@H]1c1ncnn1Cc1ccc(Cl)cc1 [Compound 62] |
| < 50 | Cc1cc(C(F)(F)F)ccc1NC(=O)N1CCC[C@@H]1c1ncnn1Cc1ccc(Cl)cc1 [Compound 63] |
| < 50 | O=C(Nc1ccc(C(F)(F)F)cc1)N1CCC[C@@H]1c1ncnn1Cc1ccc(Cl)cc1 [Compound 64] |
| 50 to 500 | O=C(N[C@H]1CCOc2cc(Cl)ccc21)N1CCC[C@@H]1c1ncnn1Cc1ccc(Cl)cc1 [Compound 65] |
| 50 to 500 | Cc1cc(Cl)cc(C)c1NC(=O)N1CCC[C@@H]1c1ncnn1Cc1ccc(Cl)cc1 [Compound 66] |
| 50 to 500 | CSc1ccc(NC(=O)N2CCC[C@@H]2c2ncnn2Cc2ccc(Cl)cc2)cc1 [Compound 67] |
